Data: patent US10597388B2, “Pyridazinone herbicides” (FMC CORPORATION, priority 2014, dated 2020)

Assays:
Assay type in all cases: in vivo
[1] = test system: AMARE, redroot pigweed (Amaranthus retroflexus); assay: Test F mixtures with commercial herbicides, Post- or Pre-emergence; conditions: scale 0-100
Experimental: (§1) This test evaluated the effect of mixtures of Compound 1 or Compound 2 with various commercial herbicides on multiple plant species. Seeds of multiple plant species selected were planted into Sandy Loam soil and treated either Post-emergence or Pre-emergence with test chemicals formulated in a non-phytotoxic solvent mixture. Plants were grown in a greenhouse using supplemental lighting to maintain a photoperiod of approximately 16 h; daytime and nighttime temperatures were approximately 24-30 and 19-21° C., respectively. Balanced fertilizer was applied through the watering system. Treated plants and controls were maintained in a greenhouse for 20 d, after which time all species were compared to controls and visually evaluated. Plant response ratings summarized in Tables F1 through F4 and are based on a scale of 0 to 100 where 0 is no effect and 100 is complete control. A dash (-) response means no test result. Application rates (i.e. “Rate”) are expressed in grams of active ingredient per hectare (g a.i./ha). In the following tables KCHSC is kochia (Kochia scoparia), LOLMU in Italian Ryegrass (Lolium multiflorum), AMBEL is common ragweed (Ambrosia elatior), ECHCG is barnyardgrass (Echinochloa crus-galli), SETVI is giant foxtail (Setaria faberii), AMARE is redroot pigweed (Amaranthus retroflexus), ALOMY is blackgrass (Alopecurus myosuroides) and GALAP is galium (Galium aparine). “Obsd.” is observed effect. “Exp.” is expected effect calculated from Colby's Equation.
(§2) Colby's Equation was used to determine the herbicidal effects expected from the mixtures. Colby's Equation (Colby, S. R. “Calculating Synergistic and Antagonistic Responses of Herbicide Combinations,” Weeds, 15(1), pp 20-22 (1967)) calculates the expected additive effect of herbicidal mixtures, and for two active ingredients is of the form: Pa+b=Pa+Pb−(PaPb/100)
(§3) wherein Pa+b is the percentage effect of the mixture expected from additive contribution of the individual components:
(§4) Pa is the observed percentage effect of the first active ingredient at the same use rate as in the mixture, and
(§5) Pb is the observed percentage effect of the second active ingredient at the same use rate as in the mixture.

[2] = test system: SETVI, giant foxtail (Setaria faberii); assay: as above; conditions: scale 0-100
Experimental: as §1, §2, §3, §4, §5

[3] = test system: ECHCG, barnyardgrass (Echinochloa crus-galli); assay: as above; conditions: scale 0-100
Experimental: as §1, §2, §3, §4, §5

[4] = test system: AMBEL, common ragweed (Ambrosia elatior); assay: as above; conditions: scale 0-100
Experimental: as §1, §2, §3, §4, §5

[5] = test system: LOLMU, Italian Ryegrass (Lolium multiflorum); assay: as above; conditions: scale 0-100
Experimental: as §1, §2, §3, §4, §5

[6] = test system: ALOMY, blackgrass (Alopecurus myosuroides); assay: as above; conditions: Table F3, Post-emergence, scale 0-100
Experimental: as §1, §2, §3, §4, §5

[7] = test system: GALAP, galium (Galium aparine); assay: as above; conditions: Table F3, Post-emergence, scale 0-100
Experimental: as §1, §2, §3, §4, §5

[8] = test system: KCHSC, kochia (Kochia scoparia); assay: as above; conditions: scale 0-100
Experimental: as §1, §2, §3, §4, §5

[9] = test system: Canada thistle (Cirsium arvense); assay: Test D controlled growth environment herbicide test, pre- and postemergence
Summary of the method: (§6)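 Pre-emergence: seeds sown in silt loam soil were sprayed with compound in a non-phytotoxic solvent mix containing surfactant. Post-emergence: plants at 2 to 18 cm (1- to 4-leaf stage) in peat moss/vermiculite medium got the same formulation. Visual 0–100 rating versus controls after 14 to 21 d.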

[10] = test system: geranium, cutleaf (cutleaf geranium, Geranium dissectum); assay: as above
Summary of the method: as §6

[11] = Pre-emergence, Rate 16 g a.i./ha
[12] = Pre-emergence, Rate 62 g a.i./ha
[13] = Table F3, Post-emergence, Rate 16 g a.i./ha
[14] = Table F3, Post-emergence, Rate 62 g a.i./ha
[15] = Postemergence, 31 g ai/ha, scale 0 to 100 (0 no effect, 100 complete control)
[16] = Postemergence, 125 g ai/ha, visual rating on scale 0 (no effect) to 100 (complete control), 14 to 21 d
[17] = Postemergence, 250 g ai/ha, scale 0 to 100 (0 no effect, 100 complete control)
[18] = Preemergence, 125 g ai/ha, scale 0 to 100 (0 no effect, 100 complete control)
[19] = Preemergence, 250 g ai/ha, scale 0 to 100, 0 no effect, 100 complete control
[20] = postemergence, 62 g ai/ha, scale 0 to 100, 0 no effect, 100 complete control

Cc1cc(C)c2sc(C)c(-c3c(O)c(C)nn(C)c3=O)c2c1 [Compound 2, 5-hydroxy-2,6-dimethyl-4-(2,5,7-trimethylbenzo[b]thien-3-yl)-3(2H)-pyridazinone]
AMARE Obsd. [1, 11]: 25 | AMARE Obsd. [1, 12]: 75 | AMARE Obsd. [1, 13]: 25 | AMARE Obsd. [1, 14]: 80 | SETVI Obsd. [2, 11]: 60 | SETVI Obsd. [2, 12]: 98 | SETVI Obsd. [2, 13]: 15 | SETVI Obsd. [2, 14]: 80 | ECHCG Obsd. [3, 11]: 0 | ECHCG Obsd. [3, 12]: 25 | ECHCG Obsd. [3, 13]: 5 | ECHCG Obsd. [3, 14]: 20 | AMBEL Obsd. [4, 11]: 30 | AMBEL Obsd. [4, 12]: 95 | AMBEL Obsd. [4, 13]: 40 | AMBEL Obsd. [4, 14]: 80 | LOLMU Obsd. [5, 11]: 0 | LOLMU Obsd. [5, 12]: 50 | LOLMU Obsd. [5, 13]: 75 | LOLMU Obsd. [5, 14]: 95 | ALOMY Obsd. ([6]; Rate 16 g a.i./ha): 20 | ALOMY Obsd. ([6]; Rate 62 g a.i./ha): 60 | GALAP Obsd. ([7]; Rate 16 g a.i./ha): 100 | GALAP Obsd. ([7]; Rate 62 g a.i./ha): 100 | KCHSC Obsd. [8, 11]: 0 | KCHSC Obsd. [8, 12]: 0 | KCHSC Obsd. [8, 13]: 50 | KCHSC Obsd. [8, 14]: 75

Cc1nn(C)c(=O)c(-c2cccc3ccc(Br)cc23)c1O [Compound 126]
Canada Thistle plant response rating [9, 15]: 98 | Plant response rating, Canada Thistle [9, 16]: 98 | Plant response rating, Canada Thistle [9, 17]: 100 | Plant response rating (scale of 0 to 100), Canada Thistle ([9]; Preemergence, 31 g ai/ha): 0 | Plant response rating, Canada Thistle ([9]; Preemergence, 62 g ai/ha, scale 0 to 100 (0 no effect, 100 complete control)): 15 | Plant response rating, Canada Thistle [9, 18]: 95 | Plant response rating, Canada Thistle [9, 19]: 95 | Plant response rating, Canada Thistle [9, 20]: 100 | Geranium, Cutleaf plant response rating [10, 15]: 30 | Plant response rating, Geranium, Cutleaf [10, 16]: 80 | Plant response rating, Geranium, Cutleaf [10, 17]: 90 | Plant response rating (scale of 0 to 100), Geranium, Cutleaf ([10]; Preemergence, 31 g ai/ha): 0 | Plant response rating (scale of 0 to 100), Geranium, Cutleaf ([10]; Preemergence, 62 g ai/ha): 0 | Plant response rating, Geranium, Cutleaf [10, 18]: 0 | Plant response rating, Geranium, Cutleaf [10, 19]: 15 | Plant response rating, Geranium, Cutleaf [10, 20]: 40
